Reference: article PMC11323273, “A Multipurpose Metallophore and Its Copper Complexes with Diverse Catalytic Antioxidant Properties to Deal with Metal and Oxidative Stress Disorders: A Combined Experimental, Theoretical, and In Vitro Study” (Inorganic Chemistry, 2024)
Read-outs that look alike come from different tables or passages of the source. Blank lines part the entries; values can stand above or below the compound they belong to.

Columns and labels:
Rat glioma C6 cells = test: ROS mitigation in cells using DCFH-DA; assay type: cell-based
Protocol: Rat C6 glioma cells were grown in a 25 cm^2 culture flask containing Dulbecco’s modified Eagle medium (DMEM) supplemented with 10% (v/v) fetal bovine serum (FBS) at 37 °C in a 5% CO2 atmosphere.
To evaluate redox homeostasis, the level of ROS was assessed using the redox-sensitive dye 2′,7′-dichlorodihydrofluorescein diacetate (DCFH-DA). Rat C6 glioma cells were seeded at a density of 1 × 10^5 cells/well in a 96-well plate and cultured in high-glucose DMEM supplemented with 10% (v/v) FBS at 37 °C in a 5% CO2 atmosphere. The cells were pretreated with the compounds (25 μmol L^–1) and incubated for 24 h. The cells were washed and subjected to different oxidative stress models for 1 h, including (i) metallic stress via the addition of 25 μmol L^–1 CuCl, (ii) direct addition of a 25 μmol L^–1 hydrogen peroxide solution, (iii) superoxide anion (O2^•–) generated by the xanthine ([…])/xanthine oxidase (0.1 unit/mL) enzymatic system, and (iv) hydroxyl radical (^•OH) generated by the Fenton reaction using 0.4 μmol L^–1 CuCl and 4 μmol L^–1 H2O2. The concentrations refer to the final concentrations of each well. After exposure to the oxidative stress conditions, the cells were washed and incubated with DCFH-DA (10 μmol L^–1) for 45 min. The fluorescence was measured using the model M200 Tecan Infinite microplate reader with excitation and emission wavelengths of 450 and 535 nm, respectively.

[1] = cited from earlier work
[2] = parameters: method as in PMID 4833643; conditions: cited from earlier work
[3] = Potentiometric titration: protonation equilibria and species distribution; assay type: physicochemical; conditions: 70:30 ethanol/water solution, 25 °C, read-out: log K [H2L^+]/[HL][H^+] (pKa of the amine group)
Protocol: The potentiometric studies were carried out with a Corning 350 digital pH meter fitted with blue-glass and Ag/AgCl reference electrodes calibrated to read −log[H^+] directly, designated as pH. Doubly distilled water in the presence of KMnO4 was used to prepare the solutions. For the ligands, the study was performed in a 70:30 ethanol/water solution, while the copper complexes were studied in water. The electrode was calibrated using the data obtained from the potentiometric titration of a known volume of a standard 0.100 mol L^–1 HCl solution with a standard 0.100 mol L^–1 KOH solution. The ionic strength of the HCl solution was maintained at 0.100 mol L^–1 upon the addition of KCl. […]
The titration curves were processed with BEST7,[86] which has as input file: titrant concentration, an initial value for the number of millimoles of the species under investigation, the volume increments of the titrant added, and the corresponding values of pH measured during titration. The program uses the least-squares method to minimize the differences between the calculated pH values and the experimental ones obtained during the titration, keeping fixed the values of the known equilibrium constants, such as those for the hydrolysis of the metal ion,[87] and varying the values of the constants to be determined, minimizing the error. […]

[4] = parameters: method as in doi:10.3390/pr10010132; conditions: studied under the same conditions; read-out: RSA50; cited from earlier work

SMILES: [Cl][Cu] [Cu(I), CuCl, reference compound]
- increase of cell fluorescence (ROS level) compared to the control (Rat glioma C6 cells; 25 μmol L^–1 CuCl, 1 h): 3 fold

SMILES: [Cl][Cu][Cl] [CuCl2·2H2O]
- IC50 [1]: 0.91 ± 0.191 µM

- pKa [3]: 8.11
SMILES: CC(O)CNCc1ccccn1 (stereo not shown) [HL, 1-(pyridin-2-ylmethylamino)propan-2-ol]
- pKa of the pyridine group [2]: < 3
- antioxidant effect in cells exposed to hydroxyl radical (Rat glioma C6 cells; pretreatment 25 μmol L^–1, 24 h, 0.4 μmol L^–1 CuCl and 4 μmol L^–1 H2O2 1 h): HL ∼ 1 > 2
- redox status of cells exposed to Cu(I) (DCFH-DA fluorescence) (Rat glioma C6 cells; pretreatment 25 μmol L^–1, 24 h, 25 μmol L^–1 CuCl 1 h): no change in the cell redox status
- protection of cells against exogenous H2O2 (redox level) (Rat glioma C6 cells; pretreatment 25 μmol L^–1, 24 h, 25 μmol L^–1 H2O2 1 h): maintaining the redox state at the basal level
- antioxidant protection of cells against superoxide radical anion (Rat glioma C6 cells; pretreatment 25 μmol L^–1, 24 h, xanthine/xanthine oxidase 1 h): maintaining the redox state at the basal level

SMILES: NC(=O)CCNCCNCCC(N)=O.[Cl-].[Cl-].[Cu+2] [[Cu(BCEN)]Cl2·2H2O]
- IC50 [1]: 0.179 ± 0.017 µM

SMILES: NC(=O)CCN1CCCN(CCC(N)=O)CC1.[Cl-].[Cl-].[Cu+2] [[Cu(BPAH)H2O]Cl2]
- IC50 [1]: 0.129 ± 0.033 µM

SMILES: NC(=O)CCN1CCN(CCC(N)=O)CC1.[Cl-].[Cl-].[Cu+2] [[Cu(BPAP)H2O]Cl2]
- IC50 [1]: 0.168 ± 0.03 µM

SMILES: [Cl][Cu][Cl].c1ccc(CNCc2ccccn2)nc1 [[Cu(bmpa)Cl2]]
- EC50 [4]: 1070 µM

SMILES: c1ccc(CNCc2ccccn2)nc1 [bis(2-pyridylmethyl)amine, reference compound]
- pKa ([2]; amine group): 7.28
